Results on nine molecules are retold here after patent US5597824A, “Analogs of oxetanyl purines and pyrimidines” (Abbott Laboratories, priority 1992, dated 1997).

One data set has as its system Vero cells. The experiment in a line: Cell viability (MTT) of uninfected test-compound control wells. It counts as cell-based, African green monkey. Particulars: cell viability reduced by 25%. On the procedure: Vero cells were pregrown as monolayers in wells of COSTAR 96-well tisue culture plates using suitable cell culture media. Stock viruses were pretitered according to the method of Reed and Muench (Amer. J. Hyg. 27 493 (1938)) and diluted in cell culture medium to yield 32 CCID50 (cell culture infectious dose, 50%) units per 0.1 mL. Antiviral assays were designed to test six concentrations of each compound, from cytotoxic to noncytotoxic levels, in triplicate against each of the challenge viruses in microtiter plate wells containing cell monolayers. To each of the replicate cell cultures were added 0.1 mL of the test-compound solution and 0.1 mL of virus suspension. Two compounds were evaluated per plate. The following controls were included:
(3) Test-compound cytotoxicity controls containing uninfected, test-compound treated cells;
The covered plates were incubated at 37° C. in a humidified atmosphere containing 2% CO2. When cytopathogenic effect (CPE) in untreated virus control wells reached 100%, 20 μL of 3-(4,5-dimethyl-thiazol-2-yl)-2,5-diphenyl tetrazolium bromide (MTT) (dissolved in PBS at 5 mg/mL) was pipetted into each of the plate wells. The plates were incubated at 37° C. for six hours; then 40 μL of 30% SDS (in 0.02N HCl) was added to each well. After overnight incubation at 37° C. the blue color or the MTT formazan was measured spectrophotometrically at 570 nm. The optical density (OD) value of each culture is a function of the amount of formazan produced which is proportional to the number of viable cells. A computer program was utilized to calculate the percent (CPE) reciprocal of % CPE reduction) of the virus-infected wells and % cell viability of the uninfected test-compound control wells.
The IC50 value is the minimum test-compound concentration (μg/mL) that inhibited CPE by 50%, calculated by using a regression analysis program for semilog curve fitting. The TC25 value is the minimum test-compound concentration (μg/mL) that reduced cell viability by 25%.

In data set [1] the test system is Herpes simplex type 1 (HSV-1) strain E-377. The experiment in a line: CPE-inhibition assay, HSV-1 strain E-377 in Vero cells. Particulars: HSV-1 (E-377), minimum cytotoxic concentration / ID50. It counts as cell-based, Herpes simplex virus type 1. On the procedure:
(§1) The challenge viruses were propagated and assayed in cells that were pregrown as monolayer cultures in plastic tissue culture flasks and 96-well plates, using cell culture media appropriate for the host cell cultures. The following viruses and host cell cultures were employed:
(§2) green monkey kidney (Vero)
(§3) On the day of use, a weighed sample of each compound to be evaluated was dissolved and diluted in serial 10^0.5 dilutions in the culture medium appropriate for each virus-host cell system.
Mammalian cells were pregrown as monolayers in wells of COSTAR 96-well tissue culture plates using suitable cell culture media. Stock viruses were pretitered according to the method of Reed and Muench (Amer. J. Hyg. 27:493-497, 1938) and diluted in cell culture medium to yield 32 CCID50 (cell culture infectious dose, 50%) units per 0.1 ml. Antiviral assays were designed to test seven concentrations of each compound, from cytotoxic to noncytotoxic levels, in triplicate against each of the challenge viruses in microtiter plate wells containing suitable cell monolayers. To each of the replicate cell cultures were added 0.1 ml of the test drug solution and 0.1 ml of virus suspension. Cell controls containing medium alone, virus controls containing medium and virus, and drug cytotoxicity controls containing medium and each drug concentration were run simultaneously with the test samples assayed in each experiment. […]
(§4) Antiviral activity was determined by calculating the degree of inhibition of virus-induced CPE in drug-treated, virus-infected cell cultures by means of a virus rating (VR). The VR is a standard weighted measurement of antiviral activity taking into account both the degree of CPE inhibition and drug cytotoxicity, and is determined by a modification of the method of Ehrlich et al. (Ann. N.Y. Acad. Sci. 130: 5-16, 1965) as described below. […]
(§5) The VR was calculated as 0.1 of the sum of the numerical differences between the recorded CPE grade of each test well and that of the corresponding virus control in the culture plate. […]

In data set [2] the test system is Herpes simplex type 2 (HSV-2) strain MS. Nature of the data set: CPE-inhibition assay, HSV-2 strain MS in Vero cells. It counts as cell-based, Herpes simplex virus type 2. As to conditions: HSV-2 (MS), minimum cytotoxic concentration / ID50. On the procedure: as §1, §2, §3
Mammalian cells were pregrown as monolayers in wells of COSTAR 96-well tissue culture plates using suitable cell culture media. […]
as §4, §5

In data set [3] the test system is Human Cytomegalovirus (HCMV) strain AD169. Nature of the data set: Virus yield reduction assay, HCMV in MRC5 cells. It counts as cell-based. As to the method: Human diploid embryonic lung (MRC5) cells were grown in 35 mm wells of 6-well tissue culture plates. Subconfluent cell monolayers were rinsed with phosphate-buffered saline (PBS) and were exposed to 0.5 ml/well of HCMV (strain AD169) suspension for 1.5 hours at 37° C. The virus suspension was diluted in MEM+2% fetal bovine serum (FBS) to yield a multipicity of infection (MOI) of approximately 0.1 plaque forming units (PFU)/cell. Following the virus adsorption period, the inocula were removed and infected cell layers were rinsed with PBS. Aliquiots (2.0 ml) of each test drug concentration (dissolved in MEM supplemented with 2% FBS) were dispensed into triplicate cell cultures: two virus-infected cultures and one uninfected cytotoxicity control culture (exposed to medium without virus for 1.5 hours). Untreated virus-infected control cultutres and untreated, uninfected cell control cutures were fed with medium alone. The culture plates were incubated at 37° C. in a humidified atmosphere of 2% CO2 in air. All cell culture fluids were replaced with fresh drug and medium 48 hours postinfection (p.i.). On Day 6 p.i., the cell layers were examined microscopically for cytopathogenic effect (CPE) and drug cytotoxicity. The test and virus control cultures were then harvested by subjecting the cell layers to one cycle of freeze-thawing. The cellular material was scraped into the ambient medium and the contents from replicate cultures were pooled, dispensed into cryotubes and stored at -135° C. The harvested test and virus control samples were thawed and the infectious virus yield was determined by plaque assay in MRC5 cells grown in 12-well cluster plates. Inhibiton of HCMV replication by each test compound was determined by comparing the progeny virus yields in the drug-treated cultures with the progeny virus yeild in the untreated, virus-infected control cultures.

≈ marks a conversion by molar mass, not a printed value.

`O=c1[nH]c(=O)n([C@@H]2O[C@H](CO)[C@H]2CO)cc1I` [Example 42, 1-([2'R, 3'R, 4'S]-3', 4'-Bis(hydroxmethyl)-2'-oxetanyl)-5-iodouracil]: the TC25 with Vero cells (HSV-1 (E-377) line) and in the data set on Vero cells (HSV-2 (MS) line) was greater than 354 µg/mL in each case.
As for `O=c1[nH]c(=O)n([C@@H]2O[C@H](CO)[C@H]2CO)cc1Br` [Example 43, 1-([2'R, 3'R, 4'S]-3', 4'-Bis(hydroxmethyl)-2'-oxetanyl)-5-bromouracil], the TC25 was 18.4 µg/mL (≈ 59.9 µM) in the data set with Vero cells (HSV-1 (E-377) line) and greater than 307 µg/mL with Vero cells (HSV-2 (MS) line).
`O=c1[nH]c(=O)n([C@@H]2O[C@H](CO)[C@H]2CO)cc1C=CI` [Example 49, 1([2'R,3'R,4'S]-3',4'-n-Bis(hydroxmethyl)-2'-oxetanyl)-5-(2-iodo-1-vinyl)uracil] came in with a TC25 in the data set with Vero cells (HSV-1 (E-377) line) greater than 380 µg/mL.
On the same count and under the same terms, with `O=c1[nH]c(=O)n([C@@H]2O[C@H](CO)[C@H]2CO)cc1C=CBr` [Example 44, 1-([2'R, 3'R, 4'S]-3', 4'-Bis(hydroxmethyl)-2'-oxetanyl)-5-(2-bromo-1-vinyl)uracil] the figure was 289 µg/mL (≈ 868 µM).
As to `Cc1cn([C@@H]2O[C@H](CO)[C@H]2CO)c(=O)[nH]c1=O` [Example 21, 1-([2'R,3'R,4'S]-3',4'-Bis(hydroxmethyl)-2'-oxetanyl)5-methyluracil], the “TI (Therapeutic Index)” value in data set [1] is recorded as 1552; in data set [2], greater than 7.2.
Consider `O=c1ccn([C@@H]2O[C@H](CO)[C@H]2CO)c(=O)[nH]1` [Example 23, 1-([2'R,3'R,4'S]-3',4'-Bis(hydroxmethyl)-2'-oxetanyl)uracil], for which the “TI (Therapeutic Index)” value in data set [1] was 1.0. The HCMV yield amounted to 4.7 log10 PFU/ml in data set [3] (3.2 μg/ml); 4.5 log10 PFU/ml in data set [3] (10 μg/ml); 4.4 log10 PFU/ml in data set [3] (32 μg/ml); 4.0 log10 PFU/ml in data set [3] (100 μg/ml); 3.0 log10 PFU/ml in data set [3] (320 μg/ml).
Turning to `Nc1ccn([C@@H]2O[C@H](CO)[C@H]2CO)c(=O)n1` [Example 22, 1-([2'R,3'R,4'S]-3',4'-Bis(hydroxmethyl)-2'-oxetanyl)cytosine], the “TI (Therapeutic Index)” value stood at 13.1 in data set [1] and 9.7 in data set [2]. The HCMV yield in data set [3] (0.032 μg/ml) was 3.8 log10 PFU/ml; in data set [3] (0.1 μg/ml), 3.1 log10 PFU/ml; in data set [3] (0.32 μg/ml), 2.6 log10 PFU/ml; in data set [3] (1.0 μg/ml), 0.4 log10 PFU/ml; in data set [3] (3.2 μg/ml), less than 0.1 log10 PFU/ml; in data set [3] (10 μg/ml), less than 0.1 log10 PFU/ml.
`C=Cc1cn([C@@H]2O[C@H](CO)[C@H]2CO)c(=O)[nH]c1=O` [Example 61, 1-([2'R, 3'R, 4'S]-3',4'-Bis(hydroxmethyl)-2'-oxetanyl)-5-vinyluracil] displayed a TC25 in the data set with Vero cells (HSV-2 (MS) line) of no less than 254 µg/mL.
For the molecule `O=c1[nH]c(=O)n([C@@H]2O[C@H](CO)[C@H]2CO)cc1C=CCl` [Example 50, 1-([2'R,3'R,4'S]-3',4'-Bis(hydroxymethyl)-2'-oxetanyl)-5-(2-chloro-1-vinyl)uracil], the TC25 in the data set with Vero cells (HSV-1 (E-377) line) is greater than 289 µg/mL.
